# Laboratory results reported in US20230295197A1, “STAT5 and STAT6 Degraders and Uses Thereof” (REGENTS OF THE UNIVERSITY OF MICHICAN, priority 2022, published 2023).
# Read-outs that look alike come from different tables or passages of the source.
# Assays:
# [1] = system: STAT5; experiment: Immunoblotting (Western blot) analysis of STAT5 degradation efficiency of degraders in treated cells; assay type: cell-based
# In short: (§1)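 Treatment of cells with degraders at stated concentrations and exposure times comes first. Lysates are then equalised for total protein by BCA, and the proteins are separated, transferred and immunostained for STAT6 or STAT5 alongside GAPDH. Signal is quantified from infrared fluorescence.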
# [2] = target: T1, STAT6 (Homo sapiens, UniProt P42226); experiment: Immunoblotting (Western blot) analysis of STAT6 degradation efficiency of degraders in treated cells; assay type: cell-based
# T1 construct: endogenous in cells; host or cells: MOLM-16, KU-812, SKNO1, MB231, L1236
# T1 sequence (P42226 1-847): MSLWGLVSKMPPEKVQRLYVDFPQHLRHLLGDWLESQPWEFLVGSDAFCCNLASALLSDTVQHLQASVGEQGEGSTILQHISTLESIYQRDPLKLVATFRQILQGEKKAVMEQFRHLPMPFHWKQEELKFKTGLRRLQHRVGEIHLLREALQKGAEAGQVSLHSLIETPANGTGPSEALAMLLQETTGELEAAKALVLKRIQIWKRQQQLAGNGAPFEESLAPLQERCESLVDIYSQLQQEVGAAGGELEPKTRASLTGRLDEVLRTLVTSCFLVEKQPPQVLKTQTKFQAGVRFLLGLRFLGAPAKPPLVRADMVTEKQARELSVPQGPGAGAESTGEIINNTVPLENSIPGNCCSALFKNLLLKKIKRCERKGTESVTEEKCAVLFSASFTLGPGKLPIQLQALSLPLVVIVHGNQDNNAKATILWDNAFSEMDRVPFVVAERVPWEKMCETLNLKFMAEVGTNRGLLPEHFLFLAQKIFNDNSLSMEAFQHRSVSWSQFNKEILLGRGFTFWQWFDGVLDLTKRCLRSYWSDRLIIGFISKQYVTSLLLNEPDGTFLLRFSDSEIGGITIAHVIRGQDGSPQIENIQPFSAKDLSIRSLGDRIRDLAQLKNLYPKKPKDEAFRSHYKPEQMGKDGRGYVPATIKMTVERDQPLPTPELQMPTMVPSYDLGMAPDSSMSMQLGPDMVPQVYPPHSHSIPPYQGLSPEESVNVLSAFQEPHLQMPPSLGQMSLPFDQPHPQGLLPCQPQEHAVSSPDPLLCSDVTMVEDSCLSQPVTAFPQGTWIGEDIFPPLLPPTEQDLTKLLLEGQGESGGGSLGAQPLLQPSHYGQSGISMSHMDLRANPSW
# In short: as §1
# [3] = MOLM-16 cells, numeric bound, read-out: DC50 S5 MOLM-16
# [4] = MOLM-16 cells, numeric bound, read-out: DC50 S6 MOLM-16
# [5] = KU-812 cells, read-out: DC50 S5 KU-812
# [6] = MOLM-16 cells, class symbols, read-out: DC50 S5 MOLM-16
# [7] = SKNO1 cells, read-out: DC50 S5 SKNO1
"DC50 [1, 3] [nM]","DC50 [1, 7] [nM]",SMILES,further results
> 300,–,"CC(C)(C)[C@H](NC(=O)c1cc2cc(C(F)(F)P(=O)(O)O)ccc2s1)C(=O)N1CCC[C@H]1C(=O)N1Cc2ccccc2CC1C(=O)NCCCC#Cc1cccc2c1CN(C1CCC(=O)NC1=O)C2=O (stereo partly drawn) [Compound 657, ((2-(((2S)-1-((2S)-2-(3-((5-(2-(2,6-dioxopiperidin-3-yl)-1-oxoisoindolin-4-yl)pent-4-yn-1-yl)carbamoyl)-1,2,3,4-tetrahydroisoquinoline-2-carbonyl)pyrrolidin-1-yl)-3,3-dimethyl-1-oxobutan-2-yl)carbamoyl)benzo[b]thiophen-5-yl)difluoromethyl)phosphonic acid]","DC50 [2, 4]: > 300 nM"
> 300,–,"CCN1CC[C@H]2CC[C@@H](C(=O)N(CCC(=O)NCCC#Cc3cccc4c3CN(C3CCC(=O)NC3=O)C4=O)c3ccc(Br)cc3)N2C(=O)[C@@H](NC(=O)c2cc3cc(C(F)(F)P(=O)(O)O)ccc3s2)C1 (stereo partly drawn) [Compound 626, ((2-(((5S,8S,10aR)-8-((4-bromophenyl)(3-((4-(2-(2,6-dioxopiperidin-3-yl)-1-oxoisoindolin-4-yl)but-3-yn-1-yl)amino)-3-oxopropyl)carbamoyl)-3-ethyl-6-oxodecahydropyrrolo[1,2-a][1,5]diazocin-5-yl)carbamoyl)benzo[b]thiophen-5-yl)difluoromethyl)phosphonic acid]",–
> 300,100 to 1000,"Cc1ccc(N(CCC(=O)NCCCC#Cc2cccc3c2CN(C2CCC(=O)NC2=O)C3=O)C(=O)[C@@H]2CCCN2C(=O)[C@@H](NC(=O)c2cc3cc(C(F)(F)P(=O)(O)O)ccc3s2)C(C)(C)C)cc1 (stereo partly drawn) [Compound 646, ((2-(((2S)-1-((2S)-2-((3-((5-(2-(2,6-dioxopiperidin-3-yl)-1-oxoisoindolin-4-yl)pent-4-yn-1-yl)amino)-3-oxopropyl)(p-tolyl)carbamoyl)pyrrolidin-1-yl)-3,3-dimethyl-1-oxobutan-2-yl)carbamoyl)benzo[b]thiophen-5-yl)difluoromethyl)phosphonic acid]",–
> 300,> 10000,"CC(C)(C)[C@H](NC(=O)c1cc2cc(C(F)(F)P(=O)(O)O)ccc2s1)C(=O)N1CCC[C@H]1C(=O)N(CCC(=O)NCCCC#Cc1cccc2c1CN(C1CCC(=O)NC1=O)C2=O)c1cccc(C#N)c1 (stereo partly drawn) [Compound 643, ((2-(((2S)-1-((2S)-2-((3-cyanophenyl)(3-((5-(2-(2,6-dioxopiperidin-3-yl)-1-oxoisoindolin-4-yl)pent-4-yn-1-yl)amino)-3-oxopropyl)carbamoyl)pyrrolidin-1-yl)-3,3-dimethyl-1-oxobutan-2-yl)carbamoyl)benzo[b]thiophen-5-yl)difluoromethyl)phosphonic acid]",–

# The remaining lines, values behind:
SMILES,"DC50 [1, 3] [nM]","DC50 [1, 7] [nM]",further results
"CC(C)(C)[C@H](NC(=O)c1cc2cc(C(F)(F)P(=O)(O)O)ccc2s1)C(=O)N1CCC[C@H]1C(=O)N(CCC(=O)NCCCCCCC#Cc1cccc2c1CN(C1CCC(=O)NC1=O)C2=O)c1ccc(Br)cc1 (stereo partly drawn) [Compound 404, ((2-(((2S)-1-((2S)-2-((4-bromophenyl)(3-((8-(2-(2,6-dioxopiperidin-3-yl)-1-oxoisoindolin-4-yl)oct-7-yn-1-yl)amino)-3-oxopropyl)carbamoyl)pyrrolidin-1-yl)-3,3-dimethyl-1-oxobutan-2-yl)carbamoyl)benzo[b]thiophen-5-yl)difluoromethyl)phosphonic acid]",–,1000 to 10000,"DC50 [1, 5]: 100 to 1000 nM; DC50 [1, 6]: 100 to 1000 nM; DC50 ([2]; MB231 cells, read-out: DC50 S6 MB231): > 10000 nM; DC50 ([2]; MOLM-16 cells, class symbols, read-out: DC50 S6 MOLM-16): > 10000 nM"
"CC(C)(C)[C@H](NC(=O)c1cc2cc(C(F)(F)P(=O)(O)O)ccc2s1)C(=O)N1CCC[C@H]1C(=O)N(CCC(=O)N1CC(CCC#Cc2cccc3c2CN(C2CCC(=O)NC2=O)C3=O)C1)c1ccc(Br)cc1 (stereo partly drawn) [Compound 666, ((2-(((2S)-1-((2S)-2-((4-bromophenyl)(3-(3-(4-(2-(2,6-dioxopiperidin-3-yl)-1-oxoisoindolin-4-yl)but-3-yn-1-yl)azetidin-1-yl)-3-oxopropyl)carbamoyl)pyrrolidin-1-yl)-3,3-dimethyl-1-oxobutan-2-yl)carbamoyl)benzo[b]thiophen-5-yl)difluoromethyl)phosphonic acid]",> 300,1000 to 10000,"DC50 [1, 5]: 1000 to 10000 nM; DC50 [2, 4]: > 300 nM"
"Cc1ncsc1-c1ccc([C@H](CC(=O)NCCOCCOCCC(=O)N[C@@H]2C[C@@H](C(=O)Nc3ncc(-c4ccccc4)s3)N(C(=O)[C@@H](NC(=O)c3cc4cc(C(F)(F)P(=O)(O)O)ccc4s3)C(C)(C)C)C2)NC(=O)[C@@H]2C[C@@H](O)CN2C(=O)[C@@H](NC(=O)C2(F)CC2)C(C)(C)C)cc1 [Compound 581, (difluoro(2-(((S)-1-((2S,4R)-4-((S)-1-((2S,4R)-1-((S)-2-(1-fluorocyclopropane-1-carboxamido)-3,3-dimethylbutanoyl)-4-hydroxypyrrolidin-2-yl)-3-(4-(4-methylthiazol-5-yl)phenyl)-1,5-dioxo-9,12-dioxa-2,6-diazapentadecan-15-amido)-2-((5-phenylthiazol-2-yl)carbamoyl)pyrrolidin-1-yl)-3,3-dimethyl-1-oxobutan-2-yl)carbamoyl)benzo[b]thiophen-5-yl)methyl)phosphonic acid]",> 300,–,"DC50 [2, 4]: > 300 nM"
"CC(C)(C)[C@H](NC(=O)c1cc2cc(C(F)(F)P(=O)(O)O)ccc2s1)C(=O)N1CCC[C@H]1C(=O)N(CCC(=O)NCCCC#Cc1cccc2c1CN(C1CCC(=O)NC1=O)C2=O)c1ccc(Cl)c(F)c1 (stereo partly drawn) [Compound 636, ((2-(((2S)-1-((2S)-2-((4-chloro-3-fluorophenyl)(3-((5-(2-(2,6-dioxopiperidin-3-yl)-1-oxoisoindolin-4-yl)pent-4-yn-1-yl)amino)-3-oxopropyl)carbamoyl)pyrrolidin-1-yl)-3,3-dimethyl-1-oxobutan-2-yl)carbamoyl)benzo[b]thiophen-5-yl)difluoromethyl)phosphonic acid]",> 300,> 10000,–
"CC(C)(C)[C@H](NC(=O)c1cc2cc(C(F)(F)P(=O)(O)O)ccc2s1)C(=O)N1CCC[C@H]1C(=O)N(CCC(=O)N1CCC(Nc2cccc3c2CN(C2CCC(=O)NC2=O)C3=O)CC1)c1ccc(Br)cc1 (stereo partly drawn) [Compound 615, ((2-(((2S)-1-((2S)-2-((4-bromophenyl)(3-(4-((2-(2,6-dioxopiperidin-3-yl)-1-oxoisoindolin-4-yl)amino)piperidin-1-yl)-3-oxopropyl)carbamoyl)pyrrolidin-1-yl)-3,3-dimethyl-1-oxobutan-2-yl)carbamoyl)benzo[b]thiophen-5-yl)difluoromethyl)phosphonic acid]",> 300,–,"DC50 [1, 5]: > 10000 nM"
"CC(C)(C)[C@H](NC(=O)c1cc2cc(C(F)(F)P(=O)(O)O)ccc2s1)C(=O)N1CCC[C@H]1C(=O)N(CCC(=O)NCCCC#Cc1cccc2c1CN(C1CCC(=O)NC1=O)C2=O)c1cccc(-c2ccccc2)c1 (stereo partly drawn) [Compound 649, ((2-(((2S)-1-((2S)-2-([1,1′-biphenyl]-3-yl(3-((5-(2-(2,6-dioxopiperidin-3-yl)-1-oxoisoindolin-4-yl)pent-4-yn-1-yl)amino)-3-oxopropyl)carbamoyl)pyrrolidin-1-yl)-3,3-dimethyl-1-oxobutan-2-yl)carbamoyl)benzo[b]thiophen-5-yl)difluoromethyl)phosphonic acid]",> 300,1000 to 10000,–
"CC(C)(C)[C@H](NC(=O)c1cc2cc(C(F)(F)P(=O)(O)O)ccc2s1)C(=O)N1CCC[C@H]1C(=O)N(CCC(=O)NCCCCC#Cc1cccc2c1CN(C1CCC(=O)NC1=O)C2=O)c1ccc(Cl)cc1 (stereo partly drawn) [Compound 638, ((2-(((2S)-1-((2S)-2-((4-chlorophenyl)(3-((6-(2-(2,6-dioxopiperidin-3-yl)-1-oxoisoindolin-4-yl)hex-5-yn-1-yl)amino)-3-oxopropyl)carbamoyl)pyrrolidin-1-yl)-3,3-dimethyl-1-oxobutan-2-yl)carbamoyl)benzo[b]thiophen-5-yl)difluoromethyl)phosphonic acid]",–,–,"DC50 [1, 6]: 100 to 1000 nM"
"CC(C)(C)[C@H](NC(=O)c1cc2cc(C(F)(F)P(=O)(O)O)ccc2s1)C(=O)N1CCC[C@H]1C(=O)N(CCC(=O)NCCCC#Cc1cccc2c1CN(C1CCC(=O)NC1=O)C2=O)c1ccc(C#N)cc1 (stereo partly drawn) [Compound 642, ((2-(((2S)-1-((2S)-2-((4-cyanophenyl)(3-((5-(2-(2,6-dioxopiperidin-3-yl)-1-oxoisoindolin-4-yl)pent-4-yn-1-yl)amino)-3-oxopropyl)carbamoyl)pyrrolidin-1-yl)-3,3-dimethyl-1-oxobutan-2-yl)carbamoyl)benzo[b]thiophen-5-yl)difluoromethyl)phosphonic acid]",> 300,> 10000,–
